Measured values from ChEMBL document CHEMBL1137986, “Multidrug resistance reversal activity of permethyl ningalin B amide derivatives” (Bioorg Med Chem Lett, 2004).

What was measured:
HCT-116 [1] = experiment: inhibitory activity of compound against multidrug resistance HCT116/VM46 cell line treated with Doxorubicin; assay type: functional, cell-based; conditions: Homo sapiens
HCT-116 [2] = experiment: Multi drug resistance reversal in HCT116/VM46 cell line treated with Vinblastine; assay type: functional, Homo sapiens
HCT-116 [3] = experiment: Intrinsic cytotoxic activity against multidrug resistant HCT116/VM46 cell line; assay type: functional, cell-based; conditions: Homo sapiens
HCT-116 [4] = experiment: inhibitory activity of compound against multidrug resistant HCT116/VM46 cell line treated with Vinblastine; assay type: functional, cell-based; conditions: Homo sapiens
HCT-116 [5] = experiment: Intrinsic cytotoxic activity against wild type HCT116 cell line; assay type: functional, cell-based; conditions: Homo sapiens
HCT-116 [6] = experiment: Multi drug resistance reversal in HCT116/VM46 cell line treated with Doxorubicin; assay type: functional, Homo sapiens
HCT-116 [7] = experiment: Intrinsic cytotoxic activity against Multidrug resistant HCT116/VM46 cell line; assay type: functional, cell-based; conditions: Homo sapiens
HCT-116 [8] = experiment: inhibitory activity of compound against Multidrug resistant HCT116/VM46 cell line treated with Vinblastine; assay type: functional, cell-based; conditions: Homo sapiens
HCT-116 [9] = experiment: inhibitory activity of compound against Multidrug resistance HCT116/VM46 cell line treated with Doxorubicin; assay type: functional, cell-based; conditions: Homo sapiens
HCT-116 [10] = experiment: Multi drug resistance reversal in HCT116/VM46 cell line treated with Doxorubicin at a compound concentration 7.5 uM; assay type: functional, Homo sapiens
HCT-116 [11] = experiment: inhibitory activity against Multidrug resistant HCT116/VM46 cell line treated with Vinblastine at a compound concentration 7.5 uM; assay type: functional, cell-based; conditions: Homo sapiens
HCT-116 [12] = experiment: Multi drug resistance reversal in HCT116/VM46 cell line treated with Vinblastine at a compound concentration 7.5 uM; assay type: functional, Homo sapiens
HCT-116 [13] = experiment: inhibitory activity of compound against Multidrug resistant HCT116/VM46 cell line treated with Doxorubicin at a compound concentration 7.5 uM; assay type: functional, cell-based; conditions: Homo sapiens

Row | IC50 (HCT-116 [1]) [nM] | IC50 (HCT-116 [4]) [nM] | IC50 (HCT-116 [8]) [nM] | IC50 (HCT-116 [9]) [nM] | IC50 (HCT-116 [11]) [nM] | IC50 (HCT-116 [13]) [nM] | SMILES | Reversion (HCT-116 [2]) [%] | IC50 (HCT-116 [3]) [nM] | IC50 (HCT-116 [5]) [nM] | Reversion (HCT-116 [6]) [%] | IC50 (HCT-116 [7]) [nM] | Reversion (HCT-116 [10]) [%] | Reversion (HCT-116 [12]) [%]
1 | 100 | 4 |  |  |  |  | COc1ccc(C2CC2NNC(=O)c2c(-c3ccc(OC)c(OC)c3)c3c4cc(OC)c(OC)cc4oc(=O)c3n2CCc2ccc(OC)c(OC)c2)cc1 (stereo not drawn) | 100 | > 100000 | > 100000 | 100 |  |  | 
2 |  |  | 4 | 100 |  |  | COc1ccc(CCn2c(C(=O)NNCCc3cccs3)c(-c3ccc(OC)c(OC)c3)c3c4cc(OC)c(OC)cc4oc(=O)c32)cc1OC | 100 |  | > 100000 | 100 | > 100000 |  | 
3 |  |  | 9 | 150 |  |  | COCCN(CCOC)NC(=O)c1c(-c2ccc(OC)c(OC)c2)c2c3cc(OC)c(OC)cc3oc(=O)c2n1CCc1ccc(OC)c(OC)c1 | 45 |  | 25000 | 50 | 15000 |  | 
4 |  |  | 2 | 100 |  |  | COc1cccc(CCNNC(=O)c2c(-c3ccc(OC)c(OC)c3)c3c4cc(OC)c(OC)cc4oc(=O)c3n2CCc2ccc(OC)c(OC)c2)c1 | 200 |  | 25000 | 100 | 5000 |  | 
5 |  |  | 8 | 180 |  |  | COc1ccc(CCn2c(C(=O)NN[C@@H](C)C(=O)OC(C)(C)C)c(-c3ccc(OC)c(OC)c3)c3c4cc(OC)c(OC)cc4oc(=O)c32)cc1OC | 50 |  | 7000 | 55 | 4000 |  | 
6 |  |  | 50 | 750 |  |  | COc1ccc(CCn2c(C(=O)NCCNC(=O)c3c(-c4ccc(OC)c(OC)c4)c4c5cc(OC)c(OC)cc5oc(=O)c4n3CCc3ccc(OC)c(OC)c3)c(-c3ccc(OC)c(OC)c3)c3c4cc(OC)c(OC)cc4oc(=O)c32)cc1OC | 10 |  | > 100000 | 10 | > 100000 |  | 
7 |  |  | 2 |  |  |  | COC(=O)c1c(-c2ccc(OC)c(OC)c2)c2c3cc(OC)c(OC)cc3oc(=O)c2n1CCc1ccc(OC)c(OC)c1 | 100 |  |  |  |  |  | 
8 |  |  | 6 | 100 |  |  | COc1ccc(CCn2c(C(=O)NN3CCC4(CC3)OCCO4)c(-c3ccc(OC)c(OC)c3)c3c4cc(OC)c(OC)cc4oc(=O)c32)cc1OC | 67 |  | 15000 | 100 | 10000 |  | 
9 |  |  | 4 | 100 |  |  | COc1ccc(CCn2c(C(=O)NNCCc3c[nH]c4ccccc34)c(-c3ccc(OC)c(OC)c3)c3c4cc(OC)c(OC)cc4oc(=O)c32)cc1OC | 100 |  | > 100000 | 100 | > 100000 |  | 
10 |  |  | 4 | 100 |  |  | COc1ccc(CCNNC(=O)c2c(-c3ccc(OC)c(OC)c3)c3c4cc(OC)c(OC)cc4oc(=O)c3n2CCc2ccc(OC)c(OC)c2)cc1OC | 100 |  | 5000 | 100 | 5000 |  | 
11 |  |  | 4 | 120 |  |  | COc1ccc(CNNC(=O)c2c(-c3ccc(OC)c(OC)c3)c3c4cc(OC)c(OC)cc4oc(=O)c3n2CCc2ccc(OC)c(OC)c2)cc1 | 100 |  | 40000 | 80 | 30000 |  | 
12 |  |  | 4 | 120 |  |  | COc1ccc(CCn2c(C(=O)NNC(c3ccccc3)c3ccccc3)c(-c3ccc(OC)c(OC)c3)c3c4cc(OC)c(OC)cc4oc(=O)c32)cc1OC | 100 |  | 25000 | 80 | 15000 |  | 
13 |  |  | 2 | 100 |  |  | COc1ccc(OC)c(CCNNC(=O)c2c(-c3ccc(OC)c(OC)c3)c3c4cc(OC)c(OC)cc4oc(=O)c3n2CCc2ccc(OC)c(OC)c2)c1 | 200 |  | 25000 | 100 | 10000 |  | 
14 |  |  | 7 | 240 |  |  | COc1ccc(CCn2c(C(=O)NN)c(-c3ccc(OC)c(OC)c3)c3c4cc(OC)c(OC)cc4oc(=O)c32)cc1OC | 60 |  | > 100000 | 40 | > 100000 |  | 
15 |  |  | 10 | 180 |  |  | COc1ccc(CCn2c(C(=O)NNCCc3ccc(O)cc3)c(-c3ccc(OC)c(OC)c3)c3c4cc(OC)c(OC)cc4oc(=O)c32)cc1OC | 25 |  | 15000 | 55 | 10000 |  | 
16 |  |  | 2 | 60 |  |  | COc1ccc(CCNNC(=O)c2c(-c3ccc(OC)c(OC)c3)c3c4cc(OC)c(OC)cc4oc(=O)c3n2CCc2ccc(OC)c(OC)c2)cc1 | 200 |  | 20000 | 167 | 10000 |  | 
17 |  |  | 5 | 100 |  |  | COC(=O)[C@H](CCCNNC(=O)c1c(-c2ccc(OC)c(OC)c2)c2c3cc(OC)c(OC)cc3oc(=O)c2n1CCc1ccc(OC)c(OC)c1)NC(=O)OCc1ccccc1 | 80 |  | 45000 | 100 | 40000 |  | 
18 |  |  | 10 | 200 |  |  | COc1ccc(CCn2c(C(=O)NNCCCCCCSC(C)=O)c(-c3ccc(OC)c(OC)c3)c3c4cc(OC)c(OC)cc4oc(=O)c32)cc1OC | 25 |  | 20000 | 50 | 35000 |  | 
19 |  |  | 4 | 100 |  |  | COc1ccc(CCn2c(C(=O)NNCCc3ccc(F)cc3)c(-c3ccc(OC)c(OC)c3)c3c4cc(OC)c(OC)cc4oc(=O)c32)cc1OC | 100 |  | 30000 | 100 | 20000 |  | 
20 |  |  | 2 | 100 | 0.2 | 10 | COc1ccc(CCn2c(C(=O)N(C)C)c(-c3ccc(OC)c(OC)c3)c3c4cc(OC)c(OC)cc4oc(=O)c32)cc1OC | 100 |  | 25000 | 100 | 20000 | 1000 | 1000
21 |  |  | 30 | 450 |  |  | COc1ccc(CCn2c(C(=O)NCCCCCCNC(=O)c3c(-c4ccc(OC)c(OC)c4)c4c5cc(OC)c(OC)cc5oc(=O)c4n3CCc3ccc(OC)c(OC)c3)c(-c3ccc(OC)c(OC)c3)c3c4cc(OC)c(OC)cc4oc(=O)c32)cc1OC | 15 |  | > 100000 | 20 | > 100000 |  | 
22 |  |  | 2 |  |  |  | COc1ccc(CCn2cc(-c3ccc(OC)c(OC)c3)c3c4cc(OC)c(OC)cc4oc(=O)c32)cc1OC | 100 |  |  |  |  |  | 
23 |  |  | 20 | 500 |  |  | COc1ccc(CCN(C)CCCC(C#N)(c2ccc(OC)c(OC)c2)C(C)C)cc1OC (stereo not drawn) | 10 |  |  | 20 |  |  | 
24 |  |  |  |  |  |  | CC[C@]1(O)C[C@@H]2CN(CCc3c([nH]c4ccccc34)[C@@](C(=O)OC)(c3cc4c(cc3OC)N(C)[C@H]3[C@@](O)(C(=O)OC)[C@H](OC(C)=O)[C@]5(CC)C=CCN6CC[C@]43[C@@H]65)C2)C1 [VINBLASTINE] |  |  | 4 |  |  |  | 
